# Source: patent publication US20230085307A1, “PYRIDAZINONE COMPOUND AND HERBICIDE” (NISSAN CHEMICAL CORPORATION, priority 2019, published 2023)
# Columns and labels:
# [1] = tested on: blackgrass; experiment: Test Example 4: herbicidal effect by soil treatment (Table 19, symbol J); type: in vivo, blackgrass (Alopecurus myosuroides); settings: amount of applied herbicide 320 g/ha
# Outline: (§1)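 Soil-surface application: an emulsion agent diluted with water to the predetermined dose is sprayed uniformly over seeds lying under roughly 1.5 cm of sterilized diluvial soil. Boxes stay in a greenhouse at 25° C. to 30° C. Three weeks later, each species is graded on previously defined criteria.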
# [2] = tested on: redroot pigweed; experiment: Test Example 4: herbicidal effect by soil treatment (Table 19, symbol N); type: in vivo, redroot pigweed (Amaranthus retroflexus); settings: amount of applied herbicide 320 g/ha
# Outline: as §1
# [3] = tested on: velvetleaf; experiment: Test Example 4: herbicidal effect by soil treatment (Table 19, symbol M); type: in vivo, velvetleaf (Abutilon theophrasti); settings: amount of applied herbicide 320 g/ha
# Outline: as §1
# [4] = tested on: Japanese bulrush; experiment: Test Example 1: herbicidal activity, application before weed generation under submerged conditions (Table 16, symbol B); type: in vivo, Japanese bulrush (Schoenoplectus juncoides); settings: amount of applied herbicide 320 g/ha
# Outline: (§2)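 Emulsion formulation, water-diluted to set dose, was put onto the flooded surface (4 cm depth, alluvial soil) the same day weeds were sown and 2.5-leaf rice transplanted. After 3 weeks at 25-30 °C under glass, each species was rated 0 (≤5% kill) to 5 (≥90% kill).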
# [5] = tested on: late watergrass; experiment: Test Example 2: herbicidal activity, application during weed generation under submerged conditions (Table 17, symbol A); type: in vivo, late watergrass (Echinochloa oryzicola); settings: AAH 320 g/ha; application during weed generation, submerged conditions
# Outline: (§3)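 Alluvial soil in Wagner pots was flooded to 4 cm depth and sown with the three weeds together; pots were kept in a greenhouse at 25° C. to 30° C. At the one to two leaf stage, an emulsion formulation diluted in water to a set rate went onto the water surface; scored three weeks later.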
# [6] = tested on: barnyard grass; experiment: Test Example 3: herbicidal effect by foliage application, Wagner pot (Table 18, symbol H); type: in vivo, barnyard grass (Echinochloa crus-galli); settings: amount of applied herbicide 320 g/ha
# Outline: (§4)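 Plants were sown in alluvial soil held under 0.1–0.5 cm standing water and grown 14 days in a greenhouse at 25–30 °C. An emulsifiable formulation, water-diluted to the set dose, was then sprayed onto the foliage, and effects were scored three weeks later using previously defined criteria.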
# [7] = tested on: Italian ryegrass; experiment: Test Example 5: herbicidal effect by foliage application, plastic box (Table 20, symbol K); type: in vivo, Italian ryegrass (Lolium multiflorum); settings: foliage application; for K: Italian ryegrass, herbicidal effect (criteria 0-5): AAH 320 g/ha, evaluated three weeks after application; for K: Italian ryegrass, herbicidal effect grade: 320 g/ha, three weeks after application
# Outline: (§5)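 Sow seeds spot-wise in sterilized diluvial soil; cover with ~1.5 cm soil. Grow 14 days in greenhouse, 25° C. to 30° C. Spray foliage with emulsion diluted to predetermined amount. Rate effect after 3 weeks.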
# [8] = tested on: persian speedwell; experiment: Test Example 4: herbicidal effect by soil treatment (Table 19, symbol R); type: in vivo, Persian speedwell (Veronica persica); settings: amount of applied herbicide 320 g/ha
# Outline: as §1
# [9] = tested on: barnyard grass; experiment: Test Example 5: herbicidal effect by foliage application, plastic box (Table 20, symbol H); type: in vivo, barnyard grass (Echinochloa crus-galli); settings: foliage application; for H: barnyard grass, herbicidal effect (criteria 0-5): AAH 320 g/ha, evaluated three weeks after application; for H: barnyard grass, herbicidal effect grade: 320 g/ha, three weeks after application
# Outline: as §5
# [10] = tested on: chickweed; experiment: Test Example 5: herbicidal effect by foliage application, plastic box (Table 20, symbol P); type: in vivo, common chickweed (Stellaria media); settings: foliage application; for P: chickweed, herbicidal effect (criteria 0-5): AAH 320 g/ha, evaluated three weeks after application; for P: chickweed, herbicidal effect grade: 320 g/ha, three weeks after application
# Outline: as §5
# [11] = tested on: oval-leafed pondweed; experiment: Test Example 1: herbicidal activity, application before weed generation under submerged conditions (Table 16, symbol C); type: in vivo, oval-leafed pondweed (Monochoria vaginalis); settings: amount of applied herbicide 320 g/ha
# Outline: as §2
# [12] = tested on: oval-leafed pondweed; experiment: Test Example 2: herbicidal activity, application during weed generation under submerged conditions (Table 17, symbol C); type: in vivo, oval-leafed pondweed (Monochoria vaginalis); settings: AAH 320 g/ha; application during weed generation, submerged conditions
# Outline: as §3
# [13] = tested on: southern crabgrass; experiment: Test Example 5: herbicidal effect by foliage application, plastic box (Table 20, symbol F); type: in vivo, southern crabgrass (Digitaria ciliaris); settings: foliage application; for F: southern crabgrass, herbicidal effect (criteria 0-5): AAH 320 g/ha, evaluated three weeks after application; for F: southern crabgrass, herbicidal effect grade: 320 g/ha, three weeks after application
# Outline: as §5
# [14] = tested on: blackgrass; experiment: Test Example 5: herbicidal effect by foliage application, plastic box (Table 20, symbol J); type: in vivo, blackgrass (Alopecurus myosuroides); settings: foliage application; for J: blackgrass, herbicidal effect (criteria 0-5): AAH 320 g/ha, evaluated three weeks after application; for J: blackgrass, herbicidal effect grade: 320 g/ha, three weeks after application
# Outline: as §5
# [15] = tested on: rice flat sedge; experiment: Test Example 3: herbicidal effect by foliage application, Wagner pot (Table 18, symbol E); type: in vivo, rice flat sedge (Cyperus iria); settings: amount of applied herbicide 320 g/ha
# Outline: as §4
# [16] = tested on: southern crabgrass; experiment: Test Example 4: herbicidal effect by soil treatment (Table 19, symbol F); type: in vivo, southern crabgrass (Digitaria ciliaris); settings: amount of applied herbicide 320 g/ha
# Outline: as §1
SMILES,"herbicidal effect, J: blackgrass [1]","herbicidal effect, N: redroot pigweed [2]","herbicidal effect, M: velvetleaf [3]","Herbicidal effect, B: Japanese bulrush [4]","herbicidal effect rating, A: late watergrass [5]",herbicidal effect on H: barnyard grass [6],"K: Italian ryegrass, herbicidal effect (criteria 0-5) [7]","herbicidal effect, R: persian speedwell [8]","H: barnyard grass, herbicidal effect (criteria 0-5) [9]","P: chickweed, herbicidal effect (criteria 0-5) [10]","Herbicidal effect, C: oval-leafed pondweed [11]","herbicidal effect rating, C: oval-leafed pondweed [12]","F: southern crabgrass, herbicidal effect (criteria 0-5) [13]",herbicidal effect on E: rice flat sedge [15],"herbicidal effect, F: southern crabgrass [16]","K: Italian ryegrass, herbicidal effect grade [7]","H: barnyard grass, herbicidal effect grade [9]","P: chickweed, herbicidal effect grade [10]","F: southern crabgrass, herbicidal effect grade [13]","J: blackgrass, herbicidal effect grade [14]",other results
CCCC(=O)Oc1c(C)nn(C)c(=O)c1-c1c(-c2ccc(Cl)s2)sc2ccc(F)cc12 [2-391],2 (Herbicidal rate of 20% or more and less than 40%),5 (Herbicidal rate of 90% or more (almost completely withered)),3 (Herbicidal rate of 40% or more and less than 70%),4 (Herbicidal rate of 70% or more and less than 90%),3 (Herbicidal rate of 40% or more and less than 70%),5 (Herbicidal rate of 90% or more (almost completely withered)),5 (Herbicidal rate of 90% or more (almost completely withered)),3 (Herbicidal rate of 40% or more and less than 70%),5 (Herbicidal rate of 90% or more (almost completely withered)),5 (Herbicidal rate of 90% or more (almost completely withered)),5 (Herbicidal rate of 90% or more (almost completely withered)),5 (Herbicidal rate of 90% or more (almost completely withered)),5 (Herbicidal rate of 90% or more (almost completely withered)),5 (Herbicidal rate of 90% or more (almost completely withered)),5 (Herbicidal rate of 90% or more (almost completely withered)),–,–,–,–,–,"J: blackgrass, herbicidal effect (criteria 0-5) [14]: 3 (Herbicidal rate of 40% or more and less than 70%)"
Cc1nn(C)c(=O)c(-c2c(-c3ccc4c(c3)OC(F)(F)O4)sc3ccc(F)cc23)c1O [2-392],0 (Herbicidal rate of 5% or less (almost no effect)),3 (Herbicidal rate of 40% or more and less than 70%),1 (Herbicidal rate of 5% or more and less than 20%),0 (Herbicidal rate of 5% or less (almost no effect)),2 (Herbicidal rate of 20% or more and less than 40%),5 (Herbicidal rate of 90% or more (almost completely withered)),5 (Herbicidal rate of 90% or more (almost completely withered)),5 (Herbicidal rate of 90% or more (almost completely withered)),5 (Herbicidal rate of 90% or more (almost completely withered)),5 (Herbicidal rate of 90% or more (almost completely withered)),0 (Herbicidal rate of 5% or less (almost no effect)),0 (Herbicidal rate of 5% or less (almost no effect)),4 (Herbicidal rate of 70% or more and less than 90%),5 (Herbicidal rate of 90% or more (almost completely withered)),2 (Herbicidal rate of 20% or more and less than 40%),–,–,–,–,–,"J: blackgrass, herbicidal effect (criteria 0-5) [14]: 0 (Herbicidal rate of 5% or less (almost no effect))"
CCCC(=O)Oc1c(CC)nn(C)c(=O)c1-c1c(-c2ccc(C(F)(F)F)cc2)sc2ccc(F)cc12 [2-411],0 (Herbicidal rate of 5% or less (almost no effect)),0 (Herbicidal rate of 5% or less (almost no effect)),0 (Herbicidal rate of 5% or less (almost no effect)),0 (Herbicidal rate of 5% or less (almost no effect)),3 (Herbicidal rate of 40% or more and less than 70%),5 (Herbicidal rate of 90% or more (almost completely withered)),–,2 (Herbicidal rate of 20% or more and less than 40%),–,–,0 (Herbicidal rate of 5% or less (almost no effect)),0 (Herbicidal rate of 5% or less (almost no effect)),–,3 (Herbicidal rate of 40% or more and less than 70%),0 (Herbicidal rate of 5% or less (almost no effect)),0 (Herbicidal rate of 5% or less (almost no effect)),3 (Herbicidal rate of 40% or more and less than 70%),5 (Herbicidal rate of 90% or more (almost completely withered)),3 (Herbicidal rate of 40% or more and less than 70%),0 (Herbicidal rate of 5% or less (almost no effect)),–
CCOc1ccccc1-c1sc2ccc(F)cc2c1-c1c(O)c(CC)nn(C)c1=O [2-416],0 (Herbicidal rate of 5% or less (almost no effect)),0 (Herbicidal rate of 5% or less (almost no effect)),0 (Herbicidal rate of 5% or less (almost no effect)),3 (Herbicidal rate of 40% or more and less than 70%),2 (Herbicidal rate of 20% or more and less than 40%),5 (Herbicidal rate of 90% or more (almost completely withered)),–,0 (Herbicidal rate of 5% or less (almost no effect)),–,–,2 (Herbicidal rate of 20% or more and less than 40%),2 (Herbicidal rate of 20% or more and less than 40%),–,4 (Herbicidal rate of 70% or more and less than 90%),0 (Herbicidal rate of 5% or less (almost no effect)),0 (Herbicidal rate of 5% or less (almost no effect)),3 (Herbicidal rate of 40% or more and less than 70%),5 (Herbicidal rate of 90% or more (almost completely withered)),1 (Herbicidal rate of 5% or more and less than 20%),0 (Herbicidal rate of 5% or less (almost no effect)),–
CCOC(=O)Oc1c(C)nn(C)c(=O)c1-c1c(-c2ccccc2OC)sc2cc(F)ccc12 [3-024],–,–,–,0 (Herbicidal rate of 5% or less (almost no effect)),2 (Herbicidal rate of 20% or more and less than 40%),5 (Herbicidal rate of 90% or more (almost completely withered)),–,–,–,–,0 (Herbicidal rate of 5% or less (almost no effect)),3 (Herbicidal rate of 40% or more and less than 70%),–,5 (Herbicidal rate of 90% or more (almost completely withered)),–,4 (Herbicidal rate of 70% or more and less than 90%),5 (Herbicidal rate of 90% or more (almost completely withered)),5 (Herbicidal rate of 90% or more (almost completely withered)),1 (Herbicidal rate of 5% or more and less than 20%),4 (Herbicidal rate of 70% or more and less than 90%),"J: blackgrass, herbicidal effect grade [1]: 1 (Herbicidal rate of 5% or more and less than 20%); N: redroot pigweed, herbicidal effect grade [2]: 5 (Herbicidal rate of 90% or more (almost completely withered)); M: velvetleaf, herbicidal effect grade [3]: 3 (Herbicidal rate of 40% or more and less than 70%); R: persian speedwell, herbicidal effect grade [8]: 0 (Herbicidal rate of 5% or less (almost no effect)); F: southern crabgrass, herbicidal effect grade [16]: 3 (Herbicidal rate of 40% or more and less than 70%)"
